# Columns and labels:
# [1] = target: T1, full-length beta-Catenin (Uniprot ID P35222) (Homo sapiens, UniProt P35222); experiment: Fluorescence polarization IC50 (beta-catenin / 5FAM-TCF4 10-53 competition); type: binding; conditions: fluorescence polarization; read-out: beta-Catenin FP IC50
# T1 construct: 10 nM full-length beta-Catenin (Uniprot ID P35222)
# T1 sequence (P35222 1-781): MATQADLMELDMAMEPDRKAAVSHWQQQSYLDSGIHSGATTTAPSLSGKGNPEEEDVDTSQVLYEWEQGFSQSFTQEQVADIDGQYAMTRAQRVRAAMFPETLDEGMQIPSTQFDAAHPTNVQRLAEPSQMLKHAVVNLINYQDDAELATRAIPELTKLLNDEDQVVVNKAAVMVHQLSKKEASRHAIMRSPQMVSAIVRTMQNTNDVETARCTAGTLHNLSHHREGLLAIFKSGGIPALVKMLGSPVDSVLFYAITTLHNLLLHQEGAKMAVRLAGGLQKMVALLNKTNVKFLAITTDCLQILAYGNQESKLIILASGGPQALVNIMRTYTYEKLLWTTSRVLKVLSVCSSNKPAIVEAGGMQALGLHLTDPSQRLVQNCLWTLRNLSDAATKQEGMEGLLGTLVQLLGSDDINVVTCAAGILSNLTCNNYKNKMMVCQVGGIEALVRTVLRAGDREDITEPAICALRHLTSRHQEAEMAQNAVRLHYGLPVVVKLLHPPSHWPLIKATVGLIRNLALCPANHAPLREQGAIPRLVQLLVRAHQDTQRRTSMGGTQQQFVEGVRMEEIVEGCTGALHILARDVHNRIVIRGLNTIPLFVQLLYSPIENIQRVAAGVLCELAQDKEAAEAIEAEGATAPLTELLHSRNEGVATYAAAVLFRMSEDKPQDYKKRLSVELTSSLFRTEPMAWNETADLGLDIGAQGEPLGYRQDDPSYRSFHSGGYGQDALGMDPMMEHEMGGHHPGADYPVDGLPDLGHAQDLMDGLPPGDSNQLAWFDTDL
# [2] = target: T2, beta-catenin/TCF4 engagement (Homo sapiens, UniProt P35222); experiment: Nano-BRET target engagement assay (B-cat-Halo & TCF4-Luc in HEK293 cells); type: cell-based; conditions: absolute IC50; read-out: NanoBRET Abs IC50
# T2 construct: expressed in transfected cells; host or cells: HEK293
# T2 sequence (P35222 1-781): T1 sequence (P35222 1-781)
IC50 [1] [nM],IC50 [2] [nM],SMILES
84,> 20000,"CC(=O)N1CCC[C@]12CC=CCCCC1(CCCC=CCCCCCC[C@@](C)(C(=O)N[C@@H](Cc3ccccc3)C(=O)N[C@@H](Cc3csc4ccccc34)C(=O)N[C@@H](CCC(N)=O)C(N)=O)NC(=O)[C@H](CCC(N)=O)NC(=O)[C@H](Cc3ccccc3)NC(=O)[C@H](C)NC(=O)[C@H](C)NC(=O)[C@H](CCC(=O)O)NC(=O)[C@H](CC(=O)O)NC1=O)NC(=O)[C@H](CC(N)=O)NC(=O)[C@H](CC(=O)O)NC2=O (stereo partly drawn) [I-1531, Ac-PL3-Asp-Asn-B5-Asp-Glu-Ala-Ala-Phe-Gln-S8-Phe-BztA-Gln-NH2]"
49,> 20000,"CC(=O)N1CCC[C@]12CC=CCCCC1(CCCC=CCCCCCC[C@@](C)(C(=O)N[C@@H](Cc3ccccc3)C(=O)N[C@@H](Cc3csc4ccccc34)C(=O)N[C@@H](CCC(N)=O)C(N)=O)NC(=O)[C@H](CCC(N)=O)NC(=O)[C@H](Cc3ccccc3)NC(=O)[C@H](C)NC(=O)[C@H](C)NC(=O)[C@H](CCC(=O)O)NC(=O)[C@H](CC(=O)O)NC1=O)NC(=O)[C@H](CC(N)=O)NC(=O)[C@H](CC(=O)O)NC2=O (stereo partly drawn) [I-1532, Ac-PL3-Asp-Asn-B5-Asp-Glu-Ala-Ala-Phe-Gln-S8-Phe-BztA-Gln-NH2]"
36,> 20000,"CC(=O)N1CCC[C@]12CC=CCCCC1(CCCC=CCCCCCC[C@@](C)(C(=O)N[C@@H](Cc3ccccc3)C(=O)N[C@@H](Cc3csc4ccccc34)C(=O)N[C@@H](CCC(N)=O)C(N)=O)NC(=O)[C@H](CCC(N)=O)NC(=O)[C@H](Cc3ccccc3)NC(=O)[C@H](C)NC(=O)[C@H](C)NC(=O)[C@H](CCC(=O)O)NC(=O)[C@H](CC(=O)O)NC1=O)NC(=O)[C@H](CCC(N)=O)NC(=O)[C@H](CC(=O)O)NC2=O (stereo partly drawn) [I-1539, Ac-PL3-Asp-Gln-B5-Asp-Glu-Ala-Ala-Phe-Gln-S8-Phe-BztA-Gln-NH2]"
61,> 20000,"CC(=O)N1CCC[C@]12CC=CCCCC1(CCCC=CCCCCCC[C@@](C)(C(=O)N[C@@H](Cc3ccccc3)C(=O)N[C@@H](Cc3csc4ccccc34)C(=O)N[C@@H](CCC(N)=O)C(N)=O)NC(=O)[C@H](CCC(N)=O)NC(=O)[C@H](Cc3ccccc3)NC(=O)[C@H](C)NC(=O)[C@H](C)NC(=O)[C@H](CCC(=O)O)NC(=O)[C@H](CC(=O)O)NC1=O)NC(=O)[C@H](CCO)NC(=O)[C@H](CC(=O)O)NC2=O (stereo partly drawn) [I-1544, Ac-PL3-Asp-Hse-B5-Asp-Glu-Ala-Ala-Phe-Gln-S8-Phe-BztA-Gln-NH2]"
26,> 20000,"CC(=O)N1CCC[C@]12CC=CCCCC1(CCCC=CCCCCCC[C@@](C)(C(=O)N[C@@H](Cc3ccccc3)C(=O)N[C@@H](Cc3csc4ccccc34)C(=O)N[C@@H](CCC(N)=O)C(N)=O)NC(=O)[C@H](CCC(N)=O)NC(=O)[C@H](Cc3ccccc3)NC(=O)[C@H](C)NC(=O)[C@H](C)NC(=O)[C@H](CCC(=O)O)NC(=O)[C@H](CC(=O)O)NC1=O)NC(=O)[C@H](CCO)NC(=O)[C@H](CC(=O)O)NC2=O (stereo partly drawn) [I-1545, Ac-PL3-Asp-Hse-B5-Asp-Glu-Ala-Ala-Phe-Gln-S8-Phe-BztA-Gln-NH2]"

# Further lines, the compound ahead of its results:
SMILES,IC50 [1] [nM],IC50 [2] [nM]
"CC(=O)N1CCC[C@]12CC=CCCCC1(CCCC=CCCCCCC[C@@](C)(C(=O)N[C@@H](Cc3ccccc3)C(=O)N[C@@H](Cc3csc4ccccc34)C(=O)N[C@@H](CCC(N)=O)C(N)=O)NC(=O)[C@H](CCO)NC(=O)[C@H](Cc3ccccc3)NC(=O)[C@H](C)NC(=O)[C@H](C)NC(=O)[C@H](CCC(=O)O)NC(=O)[C@H](CC(=O)O)NC1=O)NC(=O)[C@H](CO)NC(=O)[C@H](CC(=O)O)NC2=O (stereo partly drawn) [I-1530, Ac-PL3-Asp-Ser-B5-Asp-Glu-Ala-Ala-Phe-Hse-S8-Phe-BztA-Gln-NH2]",61,36900
"CC(=O)N1CCC[C@]12CC=CCCCC1(CCCC=CCCCCCC[C@@](C)(C(=O)N[C@@H](Cc3ccccc3)C(=O)N[C@@H](Cc3csc4ccccc34)C(=O)N[C@@H](CCC(N)=O)C(N)=O)NC(=O)[C@H](CC(C)C)NC(=O)[C@H](Cc3ccccc3)NC(=O)[C@H](C)NC(=O)[C@H](C)NC(=O)[C@H](CCC(=O)O)NC(=O)[C@H](CC(=O)O)NC1=O)NC(=O)[C@H](CC(N)=O)NC(=O)[C@H](CC(=O)O)NC2=O (stereo partly drawn) [I-1533, Ac-PL3-Asp-Asn-B5-Asp-Glu-Ala-Ala-Phe-Leu-S8-Phe-BztA-Gln-NH2]",76,> 20000
"CC(=O)N1CCC[C@]12CC=CCCCC1(CCCC=CCCCCCC[C@@](C)(C(=O)N[C@@H](Cc3ccccc3)C(=O)N[C@@H](Cc3csc4ccccc34)C(=O)N[C@@H](CCC(N)=O)C(N)=O)NC(=O)[C@H](CCO)NC(=O)[C@H](Cc3ccccc3)NC(=O)[C@H](C)NC(=O)[C@H](C)NC(=O)[C@H](CCC(=O)O)NC(=O)[C@H](CC(=O)O)NC1=O)NC(=O)[C@H](CC(N)=O)NC(=O)[C@H](CC(=O)O)NC2=O (stereo partly drawn) [I-1534, Ac-PL3-Asp-Asn-B5-Asp-Glu-Ala-Ala-Phe-Hse-S8-Phe-BztA-Gln-NH2]",181,> 20000
"CC(=O)N1CCC[C@]12CC=CCCCC1(CCCC=CCCCCCC[C@@](C)(C(=O)N[C@@H](Cc3ccccc3)C(=O)N[C@@H](Cc3csc4ccccc34)C(=O)N[C@@H](CCC(N)=O)C(N)=O)NC(=O)[C@H](CCO)NC(=O)[C@H](Cc3ccccc3)NC(=O)[C@H](C)NC(=O)[C@H](C)NC(=O)[C@H](CCC(=O)O)NC(=O)[C@H](CC(=O)O)NC1=O)NC(=O)[C@H](CC(N)=O)NC(=O)[C@H](CC(=O)O)NC2=O (stereo partly drawn) [I-1535, Ac-PL3-Asp-Asn-B5-Asp-Glu-Ala-Ala-Phe-Hse-S8-Phe-BztA-Gln-NH2]",72,> 20000
"CC(=O)N1CCC[C@]12CC=CCCCC1(CCCC=CCCCCCC[C@@](C)(C(=O)N[C@@H](Cc3ccccc3)C(=O)N[C@@H](Cc3csc4ccccc34)C(=O)N[C@@H](CCC(N)=O)C(N)=O)NC(=O)[C@H](CCO)NC(=O)[C@H](Cc3ccccc3)NC(=O)[C@H](C)NC(=O)[C@H](C)NC(=O)[C@H](CCC(=O)O)NC(=O)[C@H](CC(=O)O)NC1=O)NC(=O)[C@H](CCC(C)C)NC(=O)[C@H](CC(=O)O)NC2=O (stereo partly drawn) [I-1537, Ac-PL3-Asp-Hleu-B5-Asp-Glu-Ala-Ala-Phe-Hse-S8-Phe-BztA-Gln-NH2]",31,13900
"CC(=O)N1CCC[C@]12CC=CCCCC1(CCCC=CCCCCCC[C@@](C)(C(=O)N[C@@H](Cc3ccccc3)C(=O)N[C@@H](Cc3csc4ccccc34)C(=O)N[C@@H](CCC(N)=O)C(N)=O)NC(=O)[C@H](CCO)NC(=O)[C@H](Cc3ccccc3)NC(=O)[C@H](C)NC(=O)[C@H](C)NC(=O)[C@H](CCC(=O)O)NC(=O)[C@H](CC(=O)O)NC1=O)NC(=O)[C@H](CCC(C)C)NC(=O)[C@H](CC(=O)O)NC2=O (stereo partly drawn) [I-1538, Ac-PL3-Asp-Hleu-B5-Asp-Glu-Ala-Ala-Phe-Hse-S8-Phe-BztA-Gln-NH2]",21,11800
"CC(=O)N1CCC[C@]12CC=CCCCC1(CCCC=CCCCCCC[C@@](C)(C(=O)N[C@@H](Cc3ccccc3)C(=O)N[C@@H](Cc3csc4ccccc34)C(=O)N[C@@H](CCC(N)=O)C(N)=O)NC(=O)[C@H](CC(C)C)NC(=O)[C@H](Cc3ccccc3)NC(=O)[C@H](C)NC(=O)[C@H](C)NC(=O)[C@H](CCC(=O)O)NC(=O)[C@H](CC(=O)O)NC1=O)NC(=O)[C@H](CCO)NC(=O)[C@H](CC(=O)O)NC2=O (stereo partly drawn) [I-1546, Ac-PL3-Asp-Hse-B5-Asp-Glu-Ala-Ala-Phe-Leu-S8-Phe-BztA-Gln-NH2]",71,37900
"CC(=O)N1CCC[C@]12CC=CCCCC1(CCCC=CCCCCCC[C@@](C)(C(=O)N[C@@H](Cc3ccccc3)C(=O)N[C@@H](Cc3csc4ccccc34)C(=O)N[C@@H](CCC(N)=O)C(N)=O)NC(=O)[C@H](CCO)NC(=O)[C@H](Cc3ccccc3)NC(=O)[C@H](C)NC(=O)[C@H](C)NC(=O)[C@H](CCC(=O)O)NC(=O)[C@H](CC(=O)O)NC1=O)NC(=O)[C@H](CCO)NC(=O)[C@H](CC(=O)O)NC2=O (stereo partly drawn) [I-1547, Ac-PL3-Asp-Hse-B5-Asp-Glu-Ala-Ala-Phe-Hse-S8-Phe-BztA-Gln-NH2]",68,> 20000
"CC(=O)N1CCC[C@]12CC=CCCCC1(CCCC=CCCCCCC[C@@](C)(C(=O)N[C@@H](Cc3ccccc3)C(=O)N[C@@H](Cc3csc4ccccc34)C(=O)N[C@@H](CCC(N)=O)C(N)=O)NC(=O)[C@H](CCO)NC(=O)[C@H](Cc3ccccc3)NC(=O)[C@H](C)NC(=O)[C@H](C)NC(=O)[C@H](CCC(=O)O)NC(=O)[C@H](CC(=O)O)NC1=O)NC(=O)[C@H](CCO)NC(=O)[C@H](CC(=O)O)NC2=O (stereo partly drawn) [I-1548, Ac-PL3-Asp-Hse-B5-Asp-Glu-Ala-Ala-Phe-Hse-S8-Phe-BztA-Gln-NH2]",28,> 20000
"CC(=O)N1CCC[C@]12CC=CCCCC1(CCCC=CCCCCCC[C@@](C)(C(=O)N[C@@H](Cc3ccccc3)C(=O)N[C@@H](Cc3csc4ccccc34)C(=O)N[C@@H](CCC(N)=O)C(N)=O)NC(=O)[C@H](CCC(N)=O)NC(=O)[C@H](Cc3ccccc3)NC(=O)[C@H](C)NC(=O)[C@H](C)NC(=O)[C@H](CCC(=O)O)NC(=O)[C@H](CC(=O)O)NC1=O)NC(=O)[C@H](Cc1ccccc1)NC(=O)[C@H](CC(=O)O)NC2=O (stereo partly drawn) [I-1549, Ac-PL3-Asp-Phe-B5-Asp-Glu-Ala-Ala-Phe-Gln-S8-Phe-BztA-Gln-NH2]",13,11600
